From patent publication US12209102B2, “Heterocyclic compounds and uses thereof” (Kumquat Biosciences Inc., priority 2022, dated 2025)

What was measured:
Format in all cases: biochemical
K-Ras WT = target: T1, K-Ras WT (Homo sapiens, UniProt P01116); test: HTRF resonance energy transfer assay, K-Ras WT / SOS1 interaction; details: HTRF assay of Example 5; read-out: IC50 against K-Ras WT
T1 construct: made in house; host or cells: E. coli BL21 (DE3)
Method in brief: (§1)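 Compounds, tested in duplicate at 10 μM down to 0.01 μM, were read after about 10 min or more by HTRF as the 665/620 nm emission ratio (337 nm excitation) to derive IC50. This ratio reports FRET between an anti-GST-Eu donor on GST-K-Ras (wild-type or mutant) and an anti-6His-XL665 acceptor on His-hSOS1. Buffer: ~5 mM HEPES pH 7.4, 150 mM NaCl, 1 mM DTT, 0.05% BSA, 0.0025% Igepal.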

K-Ras G12V = target: T2, K-Ras G12V (Homo sapiens, UniProt P01116, G12V); test: HTRF resonance energy transfer assay, K-Ras G12V / SOS1 interaction; details: HTRF assay of Example 5; read-out: IC50 against K-Ras G12V
T2 construct: made in house; host or cells: E. coli BL21 (DE3)
T2 sequence (P01116 1-188 isoform P01116-2 G12V): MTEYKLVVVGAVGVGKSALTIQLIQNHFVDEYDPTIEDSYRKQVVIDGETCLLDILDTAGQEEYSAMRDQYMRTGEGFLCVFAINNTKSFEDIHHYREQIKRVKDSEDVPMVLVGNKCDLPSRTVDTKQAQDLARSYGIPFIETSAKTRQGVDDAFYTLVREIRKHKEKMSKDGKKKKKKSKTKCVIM
Method in brief: as §1

K-Ras G12D = target: T3, K-Ras G12D (Homo sapiens, UniProt P01116, G12D); test: HTRF resonance energy transfer assay, K-Ras G12D / SOS1 interaction; details: HTRF assay of Example 5; read-out: IC50 against K-Ras G12D
T3 construct: made in house; host or cells: E. coli BL21 (DE3)
T3 sequence (P01116 1-188 isoform P01116-2 G12D): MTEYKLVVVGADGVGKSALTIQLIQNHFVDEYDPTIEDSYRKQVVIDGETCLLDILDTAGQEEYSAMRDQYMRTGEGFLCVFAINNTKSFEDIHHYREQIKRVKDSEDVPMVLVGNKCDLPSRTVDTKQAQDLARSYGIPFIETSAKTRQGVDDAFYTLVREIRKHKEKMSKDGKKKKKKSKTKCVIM
Method in brief: as §1

K-Ras G12S = target: T4, K-Ras G12S (Homo sapiens, UniProt P01116, G12S); test: HTRF resonance energy transfer assay, K-Ras G12S / SOS1 interaction; details: HTRF assay of Example 5; read-out: IC50 against K-Ras G12S
T4 construct: made in house; host or cells: E. coli BL21 (DE3)
T4 sequence (P01116 1-188 isoform P01116-2 G12S): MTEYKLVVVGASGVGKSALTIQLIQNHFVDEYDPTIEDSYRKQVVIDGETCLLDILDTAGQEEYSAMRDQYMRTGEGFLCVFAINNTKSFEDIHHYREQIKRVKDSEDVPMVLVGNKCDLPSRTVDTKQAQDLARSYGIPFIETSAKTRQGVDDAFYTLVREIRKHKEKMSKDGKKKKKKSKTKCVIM
Method in brief: as §1

Measured: IC50

T1 sequence (P01116 1-188 isoform P01116-2): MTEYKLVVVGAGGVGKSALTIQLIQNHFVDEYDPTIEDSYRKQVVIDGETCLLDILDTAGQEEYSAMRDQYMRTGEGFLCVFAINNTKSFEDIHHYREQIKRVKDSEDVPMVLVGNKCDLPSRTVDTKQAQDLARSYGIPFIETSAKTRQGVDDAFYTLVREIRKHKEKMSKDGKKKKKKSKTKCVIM

C#Cc1c(F)ccc2cc(O)cc(-c3nc4c5c(nc(OC[C@@]67CCCN6C[C@H](F)C7)nc5c3F)N(C3CCNC3)CCO4)c12 (stereo partly drawn) [Compound 939, 5-ethynyl-6-fluoro-4-(4-fluoro-2-(((2R,7aS)-2-fluorotetrahydro-1H-pyrrolizin-7a(5H)-yl)methoxy)-10-(pyrrolidin-3-yl)-9,10-dihydro-8H-7-oxa-1,3,6,10-tetraazacyclohepta[de]naphthalen-5-yl)naphthalen-2-ol]
< 0.1 µM: all assays above

CC1Oc2c(Cl)c(-c3ccc(F)c4sc(N)c(C#N)c34)c(F)c3nc(OC[C@@]45CCCN4C[C@H](F)C5)nc(c23)N(CC(F)F)C1CC#N (stereo partly drawn) [Compound 968, 2-amino-4-(8-chloro-5-(cyanomethyl)-4-(2,2-difluoroethyl)-10-fluoro-2-(((2R,7aS)-2-fluorotetrahydro-1H-pyrrolizin-7a(5H)-yl)methoxy)-6-methyl-5,6-dihydro-4H-[1,4]oxazepino[5,6,7-de]quinazolin-9-yl)-7-fluorobenzo[b]thiophene-3-carbonitrile]
< 0.1 µM: all assays above

CC(=O)C1COc2c(Cl)c(-c3ccc(F)c4sc(N)c(C#N)c34)c(F)c3nc(OC[C@@]45CCCN4C[C@H](F)C5)nc(c23)N1CC(F)F (stereo partly drawn) [Compound 981, 4-(5-acetyl-8-chloro-4-(2,2-difluoroethyl)-10-fluoro-2-(((2R,7aS)-2-fluorotetrahydro-1H-pyrrolizin-7a(5H)-yl)methoxy)-5,6-dihydro-4H-[1,4]oxazepino[5,6,7-de]quinazolin-9-yl)-2-amino-7-fluorobenzo[b]thiophene-3-carbonitrile]
< 0.1 µM: all assays above

N#Cc1c(N)sc2c(F)ccc(-c3c(Cl)c4c5c(nc(OC[C@@]67CCCN6C[C@H](F)C7)nc5c3F)N(CC(F)F)C(C3CC3(F)F)CO4)c12 (stereo partly drawn) [Compound 987, 2-amino-4-(8-chloro-5-(2,2-difluorocyclopropyl)-4-(2,2-difluoroethyl)-10-fluoro-2-(((2R,7aS)-2-fluorotetrahydro-1H-pyrrolizin-7a(5H)-yl)methoxy)-5,6-dihydro-4H-[1,4]oxazepino[5,6,7-de]quinazolin-9-yl)-7-fluorobenzo[b]thiophene-3-carbonitrile]
< 0.1 µM: all assays above

Cn1nc(NC(=O)C2CN2)cc1CN1CCOc2c(Cl)c(-c3ccc(F)c4sc(N)c(C#N)c34)c(F)c3nc(OC[C@@]45CCCN4C[C@H](F)C5)nc1c23 (stereo partly drawn) [Compound 999, N-(5-((9-(2-amino-3-cyano-7-fluorobenzo[b]thiophen-4-yl)-8-chloro-10-fluoro-2-(((2R,7aS)-2-fluorotetrahydro-1H-pyrrolizin-7a(5H)-yl)methoxy)-5,6-dihydro-4H-[1,4]oxazepino[5,6,7-de]quinazolin-4-yl)methyl)-1-methyl-1H-pyrazol-3-yl)aziridine-2-carboxamide]
< 0.1 µM: all assays above

C[C@H]1C[C@@H](N2CCOc3c(Cl)c(-c4ccc(F)c5sc(N)c(C#N)c45)c(F)c4nc(OC[C@@]56CCCN5C[C@H](F)C6)nc2c34)CN1 [Compound 1010, 2-amino-4-(8-chloro-10-fluoro-2-(((2R,7aS)-2-fluorotetrahydro-1H-pyrrolizin-7a(5H)-yl)methoxy)-4-((3R,5S)-5-methylpyrrolidin-3-yl)-5,6-dihydro-4H-[1,4]oxazepino[5,6,7-de]quinazolin-9-yl)-7-fluorobenzo[b]thiophene-3-carbonitrile]
< 0.1 µM: all assays above

CN1c2nc(OC[C@@]34CCCN3C[C@H](F)C4)nc3c(F)c(-c4ccc(F)c5sc(N)c(C#N)c45)c(Cl)c(c23)OC[C@@H]1CNC(=O)C(F)F [Compound 1018, N-(((5S)-9-(2-amino-3-cyano-7-fluorobenzo[b]thiophen-4-yl)-8-chloro-10-fluoro-2-(((2R,7aS)-2-fluorotetrahydro-1H-pyrrolizin-7a(5H)-yl)methoxy)-4-methyl-5,6-dihydro-4H-[1,4]oxazepino[5,6,7-de]quinazolin-5-yl)methyl)-2,2-difluoroacetamide]
< 0.1 µM: all assays above

C#Cc1c(F)ccc2cc(O)cc(-c3nc4c5c(nc(OC[C@@]67CCCN6C[C@H](F)C7)nc5c3F)N(C3CCN(C=O)C3)CCO4)c12 (stereo partly drawn) [Compound 1019, 3-(5-(8-ethynyl-7-fluoro-3-hydroxynaphthalen-1-yl)-4-fluoro-2-(((2R,7aS)-2-fluorotetrahydro-1H-pyrrolizin-7a(5H)-yl)methoxy)-8,9-dihydro-10H-7-oxa-1,3,6,10-tetraazacyclohepta[de]naphthalen-10-yl)pyrrolidine-1-carbaldehyde]
< 0.1 µM: all assays above

N#Cc1c(N)sc2c(F)ccc(-c3c(Cl)c4c5c(nc(OC[C@@]67CCCN6C[C@H](F)C7)nc5c3F)N(Cc3ccn[nH]3)CCO4)c12 [Compound 1023, 4-(4-((1H-pyrazol-5-yl)methyl)-8-chloro-10-fluoro-2-(((2R,7aS)-2-fluorotetrahydro-1H-pyrrolizin-7a(5H)-yl)methoxy)-5,6-dihydro-4H-[1,4]oxazepino[5,6,7-de]quinazolin-9-yl)-2-amino-7-fluorobenzo[b]thiophene-3-carbonitrile]
< 0.1 µM: all assays above

N#CCC1COc2c(Cl)c(-c3ccc(F)c4sc(N)c(C#N)c34)c(F)c3nc(OC[C@@]45CCCN4C[C@H](F)C5)nc(c23)N1CCCN (stereo partly drawn) [Compound 1029, 2-amino-4-(4-(3-aminopropyl)-8-chloro-5-(cyanomethyl)-10-fluoro-2-(((2R,7aS)-2-fluorotetrahydro-1H-pyrrolizin-7a(5H)-yl)methoxy)-5,6-dihydro-4H-[1,4]oxazepino[5,6,7-de]quinazolin-9-yl)-7-fluorobenzo[b]thiophene-3-carbonitrile]
< 0.1 µM: all assays above

C/C=C\[C@H]1COc2c(Cl)c(-c3ccc(F)c4sc(N)c(C#N)c34)c(F)c3nc(OC[C@@]45CCCN4C[C@H](F)C5)nc(c23)N1CC(F)F [Compound 1032, 2-amino-4-((5S)-8-chloro-4-(2,2-difluoroethyl)-10-fluoro-2-(((2R,7aS)-2-fluorotetrahydro-1H-pyrrolizin-7a(5H)-yl)methoxy)-5-((Z)-prop-1-en-1-yl)-5,6-dihydro-4H-[1,4]oxazepino[5,6,7-de]quinazolin-9-yl)-7-fluorobenzo[b]thiophene-3-carbonitrile]
< 0.1 µM: all assays above

N#Cc1c(N)sc2c(F)ccc(-c3c(Cl)c4c5c(nc(OC[C@@]67CCCN6C[C@H](F)C7)nc5c3F)N(C3CCCNCC3)CCO4)c12 (stereo partly drawn) [Compound 1059, 2-amino-4-(4-(azepan-4-yl)-8-chloro-10-fluoro-2-(((2R,7aS)-2-fluorotetrahydro-1H-pyrrolizin-7a(5H)-yl)methoxy)-5,6-dihydro-4H-[1,4]oxazepino[5,6,7-de]quinazolin-9-yl)-7-fluorobenzo[b]thiophene-3-carbonitrile]
< 0.1 µM: all assays above

C#Cc1c(F)ccc2cc(O)cc(-c3nc4c5c(nc(OC[C@@]67CCCN6C[C@H](F)C7)nc5c3F)N(C3CCCN(C=O)C3)CCO4)c12 (stereo partly drawn) [Compound 1066, 3-(5-(8-ethynyl-7-fluoro-3-hydroxynaphthalen-1-yl)-4-fluoro-2-(((2R,7aS)-2-fluorotetrahydro-1H-pyrrolizin-7a(5H)-yl)methoxy)-8,9-dihydro-10H-7-oxa-1,3,6,10-tetraazacyclohepta[de]naphthalen-10-yl)piperidine-1-carbaldehyde]
< 0.1 µM: all assays above

CC1(O)CCCC(N2CCOc3c(Cl)c(-c4ccc(F)c5sc(N)c(C#N)c45)c(F)c4nc(OC[C@@]56CCCN5C[C@H](F)C6)nc2c34)C1 (stereo partly drawn) [Compound 1069, 2-amino-4-(8-chloro-10-fluoro-2-(((2R,7aS)-2-fluorotetrahydro-1H-pyrrolizin-7a(5H)-yl)methoxy)-4-(3-hydroxy-3-methylcyclohexyl)-5,6-dihydro-4H-[1,4]oxazepino[5,6,7-de]quinazolin-9-yl)-7-fluorobenzo[b]thiophene-3-carbonitrile]
< 0.1 µM: all assays above
